# Measured values reported in ChEMBL document CHEMBL1141452, “Advances in development of dopaminergic aporphinoids” (J Med Chem, 2007).
# Columns and labels:
# [1] = target: T1, 5-hydroxytryptamine receptor 1A (Rattus norvegicus, UniProt P19327); experiment: Displacement of [3H]8-OH-DPAT from rat 5HT1A receptor
# T1 sequence (P19327 whole entry): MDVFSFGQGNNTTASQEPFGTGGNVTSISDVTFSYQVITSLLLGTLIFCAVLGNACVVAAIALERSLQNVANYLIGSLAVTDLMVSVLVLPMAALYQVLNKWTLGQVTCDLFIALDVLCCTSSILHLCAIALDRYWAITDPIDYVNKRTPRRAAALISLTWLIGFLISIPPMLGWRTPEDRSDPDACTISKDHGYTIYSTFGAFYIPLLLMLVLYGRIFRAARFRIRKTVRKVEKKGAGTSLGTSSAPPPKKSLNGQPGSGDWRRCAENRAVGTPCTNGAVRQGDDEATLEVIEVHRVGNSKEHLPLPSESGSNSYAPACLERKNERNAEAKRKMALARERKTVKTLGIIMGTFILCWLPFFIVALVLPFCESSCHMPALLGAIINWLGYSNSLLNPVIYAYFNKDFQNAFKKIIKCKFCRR
# [2] = target: 5-hydroxytryptamine receptor 7 (Rattus norvegicus) (UniProt P32305); experiment: Displacement of [3H]5-HT from rat 5-HT7 receptor
# Chain of 5-hydroxytryptamine receptor 7 (Rattus norvegicus) (P32305 whole entry, looked up): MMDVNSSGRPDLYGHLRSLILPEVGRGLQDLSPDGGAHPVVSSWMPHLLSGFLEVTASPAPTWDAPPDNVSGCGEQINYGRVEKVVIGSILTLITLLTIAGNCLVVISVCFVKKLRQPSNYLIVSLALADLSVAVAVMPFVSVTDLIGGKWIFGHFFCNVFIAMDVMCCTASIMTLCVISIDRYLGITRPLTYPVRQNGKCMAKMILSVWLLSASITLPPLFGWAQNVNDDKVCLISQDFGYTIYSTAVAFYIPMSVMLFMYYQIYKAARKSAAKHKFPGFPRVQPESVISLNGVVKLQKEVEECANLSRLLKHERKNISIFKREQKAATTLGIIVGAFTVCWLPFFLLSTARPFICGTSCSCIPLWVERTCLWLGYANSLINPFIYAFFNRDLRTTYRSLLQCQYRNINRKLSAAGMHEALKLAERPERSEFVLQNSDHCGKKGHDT
# [3] = target: D(2) dopamine receptor (Rattus norvegicus, UniProt P61169); experiment: Displacement of [3H]raclopride from rat dopamine D2 receptor
# Chain of D(2) dopamine receptor (P61169 whole entry): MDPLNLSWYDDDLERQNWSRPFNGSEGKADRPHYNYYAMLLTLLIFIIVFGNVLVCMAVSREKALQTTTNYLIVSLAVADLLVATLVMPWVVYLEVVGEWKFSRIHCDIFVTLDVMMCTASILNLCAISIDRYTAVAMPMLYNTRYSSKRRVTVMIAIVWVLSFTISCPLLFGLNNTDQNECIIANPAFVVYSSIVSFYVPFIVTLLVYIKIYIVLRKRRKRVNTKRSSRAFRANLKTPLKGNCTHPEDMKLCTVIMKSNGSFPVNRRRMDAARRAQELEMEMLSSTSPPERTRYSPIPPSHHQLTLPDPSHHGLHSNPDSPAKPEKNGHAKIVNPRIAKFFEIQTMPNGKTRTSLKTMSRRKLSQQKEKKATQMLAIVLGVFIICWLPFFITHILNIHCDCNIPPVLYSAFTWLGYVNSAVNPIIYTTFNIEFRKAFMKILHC
# [4] = target: 5-hydroxytryptamine receptor 7 (Homo sapiens, UniProt P34969); experiment: Binding affinity at 5HT7 receptor
# Chain of 5-hydroxytryptamine receptor 7 (P34969 whole entry): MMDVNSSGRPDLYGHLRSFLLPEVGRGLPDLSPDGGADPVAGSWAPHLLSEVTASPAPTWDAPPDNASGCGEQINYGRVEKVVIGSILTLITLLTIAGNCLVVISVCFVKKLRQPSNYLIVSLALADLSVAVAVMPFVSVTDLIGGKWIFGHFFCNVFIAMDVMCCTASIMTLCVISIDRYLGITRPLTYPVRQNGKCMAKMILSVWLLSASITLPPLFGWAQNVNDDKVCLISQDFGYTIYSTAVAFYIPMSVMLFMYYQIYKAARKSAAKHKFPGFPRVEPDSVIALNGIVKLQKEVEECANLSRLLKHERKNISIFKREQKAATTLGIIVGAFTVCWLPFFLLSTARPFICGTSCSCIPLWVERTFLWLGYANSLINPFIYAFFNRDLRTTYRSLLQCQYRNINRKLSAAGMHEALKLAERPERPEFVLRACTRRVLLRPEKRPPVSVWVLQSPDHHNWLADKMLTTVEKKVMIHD
# [5] = target: Sodium-dependent dopamine transporter (Rattus norvegicus, UniProt P23977); experiment: Displacement of [3H]DA from rat DAT
# Chain of Sodium-dependent dopamine transporter (P23977 whole entry): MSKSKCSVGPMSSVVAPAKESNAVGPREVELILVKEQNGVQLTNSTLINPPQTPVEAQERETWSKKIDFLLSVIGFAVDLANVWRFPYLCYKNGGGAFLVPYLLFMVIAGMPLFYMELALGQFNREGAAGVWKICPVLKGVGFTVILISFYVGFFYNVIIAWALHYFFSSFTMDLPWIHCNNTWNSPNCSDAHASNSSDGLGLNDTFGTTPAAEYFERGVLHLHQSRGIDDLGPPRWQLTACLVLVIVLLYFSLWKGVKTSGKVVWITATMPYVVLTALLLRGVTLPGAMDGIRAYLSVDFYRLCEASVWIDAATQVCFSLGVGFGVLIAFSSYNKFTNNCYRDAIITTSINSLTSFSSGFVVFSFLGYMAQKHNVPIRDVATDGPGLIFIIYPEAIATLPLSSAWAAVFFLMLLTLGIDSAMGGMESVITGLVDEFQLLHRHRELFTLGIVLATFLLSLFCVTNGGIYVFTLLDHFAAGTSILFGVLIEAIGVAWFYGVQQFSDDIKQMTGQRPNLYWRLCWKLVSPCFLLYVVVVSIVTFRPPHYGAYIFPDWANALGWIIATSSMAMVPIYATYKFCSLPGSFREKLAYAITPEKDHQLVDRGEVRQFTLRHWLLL
# [6] = target: D(1A) dopamine receptor (Rattus norvegicus, UniProt P18901); experiment: Displacement of [3H]SCH-23390 from rat dopamine D1 receptor
# Chain of D(1A) dopamine receptor (P18901 whole entry): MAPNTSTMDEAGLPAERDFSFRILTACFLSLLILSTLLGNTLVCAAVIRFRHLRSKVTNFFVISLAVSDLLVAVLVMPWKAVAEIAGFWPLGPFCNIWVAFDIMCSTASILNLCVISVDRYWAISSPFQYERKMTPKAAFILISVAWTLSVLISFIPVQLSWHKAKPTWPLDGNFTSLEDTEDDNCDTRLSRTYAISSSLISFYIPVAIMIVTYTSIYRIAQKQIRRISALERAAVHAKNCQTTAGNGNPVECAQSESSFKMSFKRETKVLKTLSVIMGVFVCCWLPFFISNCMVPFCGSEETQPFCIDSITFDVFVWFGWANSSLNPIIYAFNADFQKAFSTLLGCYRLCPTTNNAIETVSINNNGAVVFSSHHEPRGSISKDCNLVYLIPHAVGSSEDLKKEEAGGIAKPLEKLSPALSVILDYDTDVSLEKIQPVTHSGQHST
# [7] = Inhibition of rat midbrain dopaminergic neuron firing; format: functional; settings: read-out: ID50 (the source's name)
# [8] = target: Tyrosine 3-monooxygenase (Homo sapiens, UniProt P07101); experiment: Inhibition of tyrosine hydroxylase
# Chain of Tyrosine 3-monooxygenase (P07101 whole entry): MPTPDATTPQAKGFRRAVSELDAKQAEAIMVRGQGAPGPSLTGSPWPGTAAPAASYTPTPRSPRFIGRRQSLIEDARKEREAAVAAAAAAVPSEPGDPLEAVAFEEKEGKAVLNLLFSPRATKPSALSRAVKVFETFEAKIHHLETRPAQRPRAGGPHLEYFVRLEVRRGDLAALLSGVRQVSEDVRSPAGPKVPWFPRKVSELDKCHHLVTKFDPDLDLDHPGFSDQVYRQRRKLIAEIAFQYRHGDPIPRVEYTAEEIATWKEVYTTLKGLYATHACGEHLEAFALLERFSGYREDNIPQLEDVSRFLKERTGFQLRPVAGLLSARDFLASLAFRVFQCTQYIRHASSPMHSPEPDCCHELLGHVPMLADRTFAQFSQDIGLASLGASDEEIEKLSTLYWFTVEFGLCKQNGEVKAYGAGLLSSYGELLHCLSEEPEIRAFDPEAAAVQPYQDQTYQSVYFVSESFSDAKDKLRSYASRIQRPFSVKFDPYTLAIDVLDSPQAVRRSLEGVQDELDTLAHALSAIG
# [9] = target: Tyrosine 3-monooxygenase (Rattus norvegicus) (UniProt P04177); experiment: Inhibition of tyrosine hydroxylase
# Chain of Tyrosine 3-monooxygenase (Rattus norvegicus) (P04177 whole entry, looked up): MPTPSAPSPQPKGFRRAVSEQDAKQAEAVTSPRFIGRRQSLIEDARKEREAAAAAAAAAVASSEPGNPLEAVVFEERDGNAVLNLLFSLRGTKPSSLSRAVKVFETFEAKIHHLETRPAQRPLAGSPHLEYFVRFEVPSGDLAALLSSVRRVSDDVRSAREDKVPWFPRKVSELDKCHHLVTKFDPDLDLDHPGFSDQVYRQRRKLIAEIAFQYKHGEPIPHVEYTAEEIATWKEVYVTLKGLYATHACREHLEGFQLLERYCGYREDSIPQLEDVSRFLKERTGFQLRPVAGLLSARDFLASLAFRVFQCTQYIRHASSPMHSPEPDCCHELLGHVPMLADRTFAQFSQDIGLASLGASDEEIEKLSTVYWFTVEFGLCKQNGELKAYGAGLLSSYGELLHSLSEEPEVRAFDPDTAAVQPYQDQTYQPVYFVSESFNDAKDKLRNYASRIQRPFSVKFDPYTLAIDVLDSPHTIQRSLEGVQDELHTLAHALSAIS
# [10] = tested on: PC-12; experiment: Reduction of dopamine level in catecholamine-inducing rat PC12 cells; format: functional, cell-based
# [11] = tested on: Rattus norvegicus; experiment: Displacement of [3H]SCH-23390 from rat dopamine D1 receptor at 40 mg/kg, ip; format: functional; settings: route intraperitoneal
# [12] = tested on: Rattus norvegicus; experiment: Inhibition of apomorphine-induced penile erection in rat at 40 mg/kg, ip; format: functional; parameters: scale not given: the % may be the effect or the level left; settings: route intraperitoneal
# [13] = tested on: Rattus norvegicus; experiment: Inhibition of apomorphine-induced yawning in rat at 40 mg/kg, ip; format: functional; parameters: scale not given: the % may be the effect or the level left; settings: route intraperitoneal
# [14] = tested on: Rattus norvegicus; experiment: Displacement of [3H]raclopride from rat dopamine D2 receptor at 40 mg/kg, ip; format: functional; settings: route intraperitoneal
# [15] = tested on: Cerebrum; experiment: Inhibition of lipid peroxidation in rat cerebrum; format: functional, tissue-based
SMILES,Ki [1] [nM],Ki [2] [nM],Ki [3] [nM],IC50 [6] [nM],IC50 [3] [nM],further results
CN1CCc2ccc3[nH]c(=O)c4cccc5c4c3c2[C@H]1C5,180,55,55,–,–,Ki [4]: 55 nM
CN1CCc2ccc3c(=O)[nH]c4cccc5c4c3c2[C@H]1C5,370,340,6100,–,–,–
COc1c(O)c2c3c(c1OC)CCN(C)C3Cc1ccccc1-2 (configuration not stated),–,–,–,17200,2800,IC50 [5]: 40000 nM
COc1cccc2c1-c1c3c(cc4c1C(C2)N(C)CC4)OCO3 (configuration not stated),–,–,–,> 100000,> 100000,IC50 [5]: 32000 nM
CCCN1CCc2cccc3c2[C@H]1Cc1cccc(O)c1-3,–,–,–,–,–,ED50 [7]: 0.0047 µmol/kg; IC50 [8]: 42000 nM
CCCN1CCc2cccc3c2[C@@H]1Cc1cccc(O)c1-3,–,–,–,–,–,IC50 [8]: 87000 nM
CCCN1CCc2cccc3c2[C@@H]1Cc1ccc(O)c(O)c1-3,–,–,–,–,–,ED50 [7]: 1.6 µmol/kg; IC50 [9]: 1000 nM
COc1ccc2c(c1O)-c1c3c(cc4c1[C@H](C2)N(C)CC4)OCO3 [(S)-BULBOCAPNINE],–,–,–,–,–,IC50 [10]: 27000 nM
CN1CCc2cccc3c2[C@@H]1Cc1ccc(O)c(O)c1-3 [(S)APOMORPHINE],–,–,–,–,–,ED50 [7]: 8.4 µmol/kg
Oc1ccc2c(c1)C[C@H]1NCCc3cc4c(c-2c31)OCO4 [ANOLOBINE],–,–,–,36000,15000,–
c1ccc2c(c1)C[C@H]1NCCc3cc4c(c-2c31)OCO4 [ANONAINE],–,–,–,68000,19000,–
CN1CCc2cccc3c2[C@H]1Cc1ccc(O)c(O)c1-3 [APOMORPHINE],–,–,–,–,–,ED50 [7]: 0.018 µmol/kg
COc1cc2c(cc1O)C[C@H]1c3c(cc(O)c(OC)c3-2)CCN1C [BOLDINE],–,–,–,–,–,Activity [11]: 25%; Activity [12]: 50%; Activity [13]: 50%
COc1cc2c(cc1O)C[C@H]1c3c(ccc(O)c3O2)CCN1C [BREOGANINE],–,–,–,100,200,–
COc1cc2c(cc1O)Oc1c(O)ccc3c1[C@H](C2)N(C)CC3 [CELTISINE],–,–,–,60,30,–
COc1ccc2c(c1O)Oc1c(O)ccc3c1[C@H](C2)N(C)CC3 [CLAVICULINE],–,–,–,1000,1500,IC50 [5]: > 100000 nM
COc1cc2c(cc1OC)Oc1c(O)ccc3c1[C@H](C2)N(C)CC3 [CULARIDINE],–,–,–,800,300,–
COc1cc2c(cc1OC)-c1c(OC)c(OC)cc3c1[C@H](C2)N(C)CC3 [GLAUCINE],–,–,2800,–,–,Activity [14]: 50%; Activity [11]: 50%; Activity [12]: 50%; Ki [6]: 2900 nM; Activity [13]: 50%
COc1c(O)c2c3c(c1OC)CCN[C@@H]3Cc1ccccc1-2 [ISOPILINE],–,–,–,9800,30000,–
O=C1c2ccccc2-c2c3c(cc4ccnc1c24)OCO3 [LIRIODENINE],–,–,–,75000,59000,–
COc1c(O)c2c3c(nccc3c1OC)C(C)(C)c1cc(O)ccc1-2 [MELOSMINE],–,–,–,12500,80000,IC50 [5]: 24600 nM
COc1cc2c(cc1O)C[C@@H]1NCCc3cc(O)c(OC)c-2c31 [NORBOLDINE],–,–,–,2500,6800,–
COc1c2c3c(c4c1OCO4)-c1ccccc1C[C@H]3NCC2 [NORSTEPHALAGINE],–,–,–,4800,27000,–
COc1cc2c(cc1OC)-c1c(OC)c(O)cc3c1[C@H](C2)N(C)CC3 [PREDICENTRINE],–,–,760,–,–,Ki [6]: 240 nM
CN1CCc2cc3c(c4c2C1Cc1cccc(O)c1-4)OCO3 (configuration not stated) [PUKATEINE],–,–,–,400,600,IC50 [5]: 46000 nM; IC50 [15]: 15000 nM
CCCN1CCc2cccc3c2[C@H]1Cc1ccc(O)c(O)c1-3 [R-N-PROPYLNORAPOMORPHINE],–,–,–,–,–,ED50 [7]: 0.002 µmol/kg; IC50 [9]: 300 nM
COc1ccc2c(c1O)Oc1c(OC)ccc3c1[C@H](C2)N(C)CC3 [SARCOCAPNIDINE],–,–,–,50000,2000,–
COc1cc2c3c(c1OC)-c1c(ccc(O)c1O)CC3N(C)CC2 (configuration not stated) [SUAVEOLINE],–,–,–,63000,–,IC50 [5]: > 100000 nM

# Further lines, with some results ahead:
Ki [1] [nM],Ki [2] [nM],Ki [3] [nM],SMILES,IC50 [6] [nM],IC50 [3] [nM],further results
2000,1500,270,CN1CCc2ccc3c(=O)oc4cccc5c4c3c2[C@H]1C5,–,–,–
1150,280,540,CN1CCc2ccc3oc(=O)c4cccc5c4c3c2[C@H]1C5,–,–,–
–,14,24,CN1CCc2ccc3c4c2[C@H]1Cc1cccc(c1-4)[C@H]3O,–,–,–
31,6,39,C[C@H]1c2cccc3c2-c2c1ccc1c2[C@@H](C3)N(C)CC1,–,–,–
720,1320,8000,CC(=O)N[C@H]1c2cccc3c2-c2c1ccc1c2[C@@H](C3)N(C)CC1,–,–,–
360,18,–,CN1CCc2ccc3c4c2[C@H]1Cc1cccc(c1-4)[C@@H]3N,–,–,–
310,28,180,CN1CCc2ccc3c4c2[C@H]1Cc1cccc(c1-4)[C@@]3(C)O,–,–,–
140,13,260,CN1CCc2ccc3c4c2[C@H]1Cc1cccc(c1-4)[C@H]3N,–,–,–
17,1.1,71,CO[C@@]1(C)c2cccc3c2-c2c1ccc1c2[C@@H](C3)N(C)CC1,–,–,–
17,1.1,7,CO[C@]1(C)c2cccc3c2-c2c1ccc1c2[C@@H](C3)N(C)CC1,–,–,–
200,540,3600,CC(=O)N[C@@H]1c2cccc3c2-c2c1ccc1c2[C@@H](C3)N(C)CC1,–,–,–
5.1,3.3,19,C[C@@H]1c2cccc3c2-c2c1ccc1c2[C@@H](C3)N(C)CC1,–,–,–
–,100,210,CN1CCc2ccc3c4c2[C@H]1Cc1cccc(c1-4)[C@@H]3O,–,–,–
41,7,83,CN1CCc2ccc3c4c2[C@@]1(C)Cc1cccc(c1-4)C3,–,–,–
–,4.3,26,CN1CCc2ccc3c4c2[C@H]1Cc1cccc(c1-4)[C@]3(C)O,–,–,–
800000,21,2500,Cc1cccc(C#N)c1-c1cccc2c1-c1cccc3c1[C@@H](C2)N(C)CC3 (stereo in doubt; 57),–,–,–
–,3.8,–,Cc1cccc(C#N)c1-c1cccc2c1-c1cccc3c1[C@@H](C2)N(C)CC3 (stereo in doubt; 58),–,–,–
300000,4.3,> 100000,Cc1cccc(O)c1-c1cccc2c1-c1cccc3c1[C@@H](C2)N(C)CC3 (stereo in doubt; 59),–,–,–
49000,23,> 100000,Cc1cccc(O)c1-c1cccc2c1-c1cccc3c1[C@@H](C2)N(C)CC3 (stereo in doubt; 60),–,–,–
